From patent US8796277B2, “Radioprotector compounds and related methods” (Peter MacCallum Cancer Institute, priority 2006, dated 2014)

Columns and labels:
[1] = tested on: transformed human keratinocyte cell line (FEP 1811); test: Clonogenic survival cell culture assay for cytotoxicity (un-irradiated cells); type: cell-based; details: un-irradiated FEP 1811 cells, one hour drug incubation, colonies counted after eight days; concentrations in FIG. 1 plotted in μM; read-out: cytotoxicity C50 (drug concentration corresponding to 50% survival)
Description: (§1) The assay involves the transformed human keratinocyte cell line (FEP 1811) (as described by Smith et al (6)) and evaluation of cytotoxicity and radioprotective activity using the clonogenic survival endpoint. The details are described in detail in Martin et al (4) (the disclosure of which is included herein in its entirety by way of reference), but briefly, mid-log phase monolayer cultures are incubated with various concentrations of the test drugs for one hour, after which the monolayers are washed and dispersed into single cell suspensions using pronase, and finally appropriate numbers of cells are dispensed into Petri dishes. Colonies are counted after eight days incubation. For radioprotection studies, the monolayer cultures are irradiated in a ^137Cs-Gamma-cell radiation source to a dose of 12 Gy. The irradiation (with a dose rate of 0.6 Gy per minute) is started 30 minutes after addition of the test drug. After completion of irradiation, incubation of cultures is continued until the total time of exposure to the drug reaches 60 minutes. Cultures are then washed and plated for clonogenic survival as described for the cytotoxicity experiments. The experiments include untreated cultures as controls, and the plating efficiency of these controls is used to adjust that of the test cultures, in order to calculate the overall clonogenic survival.
In general each experiment involves investigation of 4 or 5 different test concentrations of the drug under study, with and without irradiation. The data analysis for the experiments with un-irradiated cells generates curves showing the relationship between cell survival and drug concentration (FIG. 1), from which the drug concentration corresponding to 50% survival (C50) is determined.

[2] = tested on: transformed human keratinocyte cell line (FEP 1811); test: Clonogenic survival cell culture assay for radioprotective activity (cells irradiated to 12 Gy); type: cell-based; details: FEP 1811 cells, 12 Gy 137Cs gamma at 0.6 Gy per minute, irradiation started 30 minutes after drug addition, total drug exposure 60 minutes
Description: as §1
However, for some of the compounds, the survival decreases at higher drug concentrations, due to cytotoxicity. Non-linear regression analysis of the data, for example that in FIG. 2, generates a parameter denoted the protection factor (PF), which is the ratio of the maximum survival to the radiation-only (zero drug) survival. PF is therefore a measure of radioprotective efficacy. The C50 and PF values, and for a number of the compounds are collected in Table 1, with standard deviations (SD) for those compounds that have been studied in replicate experiments.

| Structure (SMILES) | IC50 [1] | radioprotection PF (protection factor: ratio of the maximum survival to the radiation-only (zero drug) survival) [2] |
| --- | --- | --- |
| CN1CCN(c2ccc3[nH]c(-c4ccc5[nH]c(-c6ccc(N(C)C)cc6F)nc5c4)nc3c2)CC1 [Example 1, 4-dimethylamino-2-fluoro-1-(5′-(5″-(4′″-methylpiperazin-1′″-yl)benzimidazol-2″-yl)benzimidazol-2′-yl)benzene] | 28 µM | 9.3 |
| CN1CCN(c2ccc3[nH]c(-c4ccc5[nH]c(-c6c(F)cc(N(C)C)cc6F)nc5c4)nc3c2)CC1 [Example 2, 2,6-difluoro-4-dimethylamino-1-(5′-(5″-(4′″-methylpiperazin-1′″-yl)benzimidazol-2″-yl)benzimidazol-2′-yl)benzene] | 25 µM | 6.4 |
| CNc1ccc(-c2nc3cc(-c4nc5cc(N6CCN(C)CC6)ccc5[nH]4)ccc3[nH]2)c(F)c1 [Example 3, 2-fluoro-4-methylamino-1-(5′-(5″-(4′″-methylpiperazin-1′″-yl)benzimidazol-2″-yl)benzimidazol-2′-yl)benzene] | 218 µM | 7 |
| CN1CCN(c2ccc3[nH]c(-c4ccc5[nH]c(-c6ccc(N(C)C)cc6Cl)nc5c4)nc3c2)CC1 [Example 4, 2-chloro-4-dimethylamino-1-(5′-(5″-(4′″-methylpiperazin-1′″-yl)benzimidazol-2″-yl)benzimidazol-2′-yl)benzene] | 18 µM | 5.5 |
| COc1ccc(-c2nc3cc(-c4nc5cc(N6CCN(C)CC6)ccc5[nH]4)ccc3[nH]2)cc1F [Example 5, 3-fluoro-4-methoxy-1-(5′-(5″-(4′″-methylpiperazin-1′″-yl)benzimidazol-2″-yl)benzimidazol-2′-yl)benzene] | 91 µM | 2.1 |
| CN1CCN(c2ccc3[nH]c(-c4ccc5[nH]c(-c6ccc(F)cc6)nc5c4)nc3c2)CC1 [Example 6, 4-fluoro-1-{5′-[5″-(4′″-methylpiperazin-1′″-yl)benzimidazol-2″-yl]benzimidazol-2′-yl}benzene] | 34 µM | 4.5 |
| CN1CCN(c2ccc3[nH]c(-c4ccc5[nH]c(-c6ccc(N(C)C)c(F)c6)nc5c4)nc3c2)CC1 [Example 7, 4-dimethylamino-3-fluoro-1-(5′-(5″-(4′″-methylpiperazin-1′″-yl)benzimidazol-2″-yl)benzimidazol-2′-yl)benzene] | 26 µM | 3.2 |
| CNc1ccc(F)c(-c2nc3cc(-c4nc5cc(N6CCN(C)CC6)ccc5[nH]4)ccc3[nH]2)c1 [Example 8, 2-fluoro-5-methylamino-1-(5′-(5″-(4′″-methylpiperazin-1′″-yl)benzimidazol-2″-yl)benzimidazol-2′-yl)benzene] | 151 µM | 15.5 |
| CN1CCN(c2ccc3[nH]c(-c4ccc5[nH]c(-c6cc(N(C)C)ccc6F)nc5c4)nc3c2)CC1 [Example 9, 5-dimethylamino-2-fluoro-1-(5′-(5″-(4′″-methylpiperazin-1′″-yl)benzimidazol-2″-yl)benzimidazol-2′-yl)benzene] | 21.9 µM | 16.7 |
| CNc1cc(F)c(-c2nc3cc(-c4nc5cc(N6CCN(C)CC6)ccc5[nH]4)ccc3[nH]2)cc1F [Example 10, 2,5-difluoro-4-methylamino-1-(5′-(5″-(4′″-methylpiperazin-1′″-yl)benzimidazol-2″-yl)benzimidazol-2′-yl)benzene] | 51.4 µM | 9.62 |
| Cc1cc(N(C)C)ccc1-c1nc2ccc(-c3nc4ccc(N5CCN(C)CC5)cc4[nH]3)cc2[nH]1 [methylproamine, reference compound] | 19.3 µM | 10 |
